This note sets out measurements from patent US11452731B2, “Method of treating and preventing loss of cognition” (ENDORECHERCHE, INC., priority 2009, dated 2022).

By IC50 is commonly meant the midpoint of a concentration-inhibition curve.

Read-outs that look alike come from different tables or passages of the source.

Assay [1] is described as follows: 26-week treatment of ovariectomized rats: lumbar spine BMD, total body fat, serum cholesterol, ALP (Example 4, experiment 2). The format is in vivo, rat. Particulars: OVX rats, 26 weeks. Here is the method:
Ten to twelve week-old female Sprague-Dawley rats (Crl:CD(SD)Br) (Charles River Laboratory, St-Constant, Canada) weighing approximately 220-270 g at start of treatment were used. […] The animals were housed individually and were allowed free access to tap water and a pelleted certified rodent feed (Lab Diet 5002, Ralston Purina, St-Louis, Mo.). Experiments were conducted in an animal facility approved by the Canadian Council on Animal Care (CCAC) and the Association for Assessment and Accreditation of Laboratory Animal Care (AAALAC) in accordance with the CCAC Guide for Care and Use of Experimental Animals. […] Treatments were initiated on day 2 of the study and were performed once daily during 26 weeks. In both experiments, animals not receiving a test article were treated with the appropriate vehicle alone during the same period. […] QDR 4500A, Hologic, Waltham, Mass.) and a Regional High Resolution Scan software. […] Samples were processed for serum preparation and frozen at -80° C. until assay. Serum cholesterol levels and alkaline phospatase activity (ALP) were determined using the Boehringer Mannheim Diagnostic Hitachi 911 Analyzer (Boehringer Mannheim Diagnostic Laboratory Systems).

The nature of assay [2]: 5-week treatment of ovariectomized rats with SERMs alone or with DHEA: BMD of lumbar spine, femur, tibia (Example 5). The format is in vivo, rat. Particulars: OVX rats, 5 weeks. Here is the method:
Ten to twelve week-old female Sprague-Dawley rats (Crl:CD(SD)Br) (Charles River Laboratory, St-Constant, Canada) weighing approximately 220-270 g at start of treatment were used. The animals were acclimatized to the environmental conditions (temperature: 22±3° C.; humidity: 50±20%; 12-h light-12-h dark cycles, lights on at 07:15 h) for at least 1 week before starting the experiments. The animals were housed individually and were allowed free access to tap water and a pelleted certified rodent feed (Lab Diet 5002, Ralston Purina, St-Louis, Mo.). Experiments were conducted in an animal facility approved by the Canadian Council on Animal Care (CCAC) and the Association for Assessment and Accreditation of Laboratory Animal Care (AAALAC) in accordance with the CCAC Guide for Care and Use of Experimental Animals.
On day 1 of the study, the animals of the appropriate groups were bilaterally ovariectomized (Ovx) under isoflurane anesthesia. The DHEA was applied topically on the dorsal skin as a solution in 50% ethanol-50% propylene glycol while the tested SERMs were administered as suspension in 0.4% methylcellulose by oral gavage. Treatments were initiated on day 2 of the study and were performed once daily during 5 weeks.
After 5 weeks of treatment, individual rats under Isoflurane anesthesia had their lumbar spine, femur and tibia scanned using dual energy x-ray absorptiometry (DEXA; QDR 4500A, Hologic, Waltham, Mass.) and a Regional High Resolution Scan software. The bone mineral density (BMD) of the lumbar spine (vertebrae L2 to L4), distal femoral metaphysis (DFM) and proximal tibial metaphysis (PTM) were determined.

Assay [3] has as its system MCF-7 human breast cancer cells. The assay can be described thus: Proliferation (DNA content) of human breast cancer MCF-7 cells (Example 7). The format is cell-based. Particulars: for IC50: Homo sapiens, read-out: Inhibition of 1 nM E2 stimulation of DNA by tested compounds IC50. From the text: MCF-7 human breast cancer cells were obtained from the American Type Culture Collection #HTB 22 at passage 147 and routinely grown in phenol red-free Dulbecco's Modified Eagle's-Ham's F12 medium, the supplements mentioned above and 5% FBS. The MCF-7 human breast adenocarcinoma cell line was derived from the pleural effusion of a patient. MCF-7 cells were used between passages 148 and 165 and subcultured weekly
Thereafter, medium was replaced with fresh medium containing the indicated concentrations of compounds diluted from 1000×stock solutions in 99% redistilled ethanol in the presence or absence of E2. Control cells received only the ethanolic vehicle (0.1% EtOH, v/v). Cells were incubated for the specified time intervals with medium changes at 2- or 3-day intervals. Cell number was determined by measurement of DNA content.
All results are expressed as means±SEM.

A short description of assay [4]: Uterine and vaginal weight in ovariectomized BALB/c mice treated orally for 9 days with or without estrone (Example 3). In kind it is in vivo. Particulars: for inhibition of estrone-stimulated uterine weight / inhibition of vaginal weight (estrone-stimulated): OVX mice + estrone, oral 9 days. The procedure: Female BALB/c mice (BALB/cAnNCrlBR) weighing 18-20 g were obtained from Charles-River, Inc. (St-Constant, Quebec, Canada) and housed 5 per cage in a temperature (23±1° C.)- and light (12 h light/day, lights on at 7:15)-controlled environment. The mice were fed rodent chow and tap water ad libitum. The animals were ovariectomized (OVX) under Isoflurane anesthesia via bilateral flank incisions and randomly assigned to groups of 10 animals. Ten mice were kept intact as controls.
In the second experiment (Table 6), TSE 424 was administered orally by gavage once daily at doses of 1, 3, 10 or 30 μg/animal for 9 days, starting 2 days after ovariectomy. In both experiments, to evaluate the antiestrogenic activity, treatment with estrone (E1, […], s.c. injection, twice daily) was started 5 days post-ovariectomy and was administered for a 6 day-period. Compounds were dissolved in ethanol (4% final concentration) and administered in 0.4% methylcellulose. Mice in the intact and OVX control groups received the vehicle alone (4% ETOH-0.4% methylcellulose) during the 9-day period. The animals were killed by exsanguination at the abdominal aorta on the 11th morning following ovariectomy. The uteri and vagina were rapidly dissected, weighed, and kept in 10% buffered formalin for further histologic examination.

In the next assay the test system is human Ishikawa cells. The experiment in a line: Alkaline phosphatase activity in human endometrial adenocarcinoma Ishikawa cells (Example 6).
Where [5] appears, read: Premarin 0.25 mg/kg, SERMs 2.5 mg/kg.
The mark [6] stands for this setting: OVX mice, absence of estrone, 10 μg daily (no-effect statements: 1 μg and 10 μg).

Regarding `Cc1c(-c2ccc(O)cc2)n(Cc2ccc(OCCN3CCCCCC3)cc2)c2ccc(O)cc12` [TSE 424, 1-[[4-[2-(hexahydro-1H-azepin-1-yl)ethoxy]phenyl]methyl]-2-(4-hydroxyphenyl)-3-methyl-1H-indol-5-ol, acetate], in assay [1], the ALP is 85 ± 6 IU, the “CHOLESTEROL (serum)” value turned out to be 1.15 ± 0.05 mmol/L, the “TOTAL FAT” value was 28.0 ± 1.8 % and the “reversal of the fat increase induced by estrogen deficiency” value is 75%. Besides, in assay [1] (setting [5]), the “LUMBAR SPINE BMD” value is recorded as 0.2252 ± 0.0058 g/cm^2 and the “LUMBAR SPINE Prevention of Bone Loss” value was determined as 49%. In addition, in assay [2], the “DISTAL FEMORAL METAPHYSIS (DFM) BMD” value worked out at 0.2929 ± 0.0042 g/cm^2, the “DISTAL FEMORAL METAPHYSIS (DFM) Prevention of Bone Loss” value amounted to 70%, the “PROXIMAL TIBIAL METAPHYSIS (PFM) BMD” value is reported as 0.2750 ± 0.0039 g/cm^2 and the “PROXIMAL TIBIAL METAPHYSIS (PFM) Prevention of Bone Loss” value was 71%. In assay [2] (SERMs 2.5 mg/kg, DHEA 80 mg/kg), the “LUMBAR SPINE (L2-L4) BMD” value was 0.2162 ± 0.0035 g/cm^2 and the “LUMBAR SPINE (L2-L4) Prevention of Bone Loss” value is 53%. Further, the IC50 in assay [3] (MCF7, MCF-7, Experiment 1) is 3.68 nM. In addition, in assay [4] (OVX + E1, 1 μg), the “UTERINE WEIGHT” value was 105.5 ± 6.1 mg and the “VAGINAL WEIGHT” value was 54.2 ± 3.0 mg. In addition, in assay [4] (OVX + E1, 3 μg), the “UTERINE WEIGHT” value is 69.7 ± 4.4 mg and the “VAGINAL WEIGHT” value turned out to be 47.2 ± 1.6 mg. In addition, in assay [4] (OVX + E1, 10 μg), the “UTERINE WEIGHT” value is reported as 42.1 ± 2.7 mg and the “VAGINAL WEIGHT” value turned out to be 31.1 ± 2.3 mg. Moreover, in assay [4] (OVX + E1, 30 μg), the “UTERINE WEIGHT” value amounted to 21.7 ± 1.7 mg and the “VAGINAL WEIGHT” value stood at 16.7 ± 1.8 mg. The “inhibition of estrone-stimulated uterine weight” value in assay [4] (1 μg daily) is listed as 12%. In addition, in assay [4] (3 μg daily), the “inhibition of estrone-stimulated uterine weight” value turned out to be 47% and the “inhibition of vaginal weight (estrone-stimulated)” value (shortened to “inhibition of vaginal weight”) is on record as 16%. In addition, in assay [4] (10 μg daily), the “inhibition of estrone-stimulated uterine weight” value amounted to 74% and the “inhibition of vaginal weight” value is 56%. In assay [4] (30 μg daily), the “inhibition of estrone-stimulated uterine weight” value is 94% and the “inhibition of vaginal weight” value stood at 93%. Also, in assay [4] (OVX without E1, 3 μg), the “UTERINE WEIGHT” value was determined as 18.3 ± 1.2 mg and the “VAGINAL WEIGHT” value is 14.1 ± 1.2 mg. In assay [4] (OVX without E1, 30 μg), the “UTERINE WEIGHT” value is on record as 17.7 ± 1.6 mg and the “VAGINAL WEIGHT” value was determined as 15.3 ± 2.0 mg.

Turning to `Oc1ccc2c(c1)CC[C@H](c1ccccc1)[C@@H]2c1ccc(OCCN2CCCC2)cc1` [Lasofoxifene (free base)], the IC50 in assay [3] (MCF7, MCF-7, Experiment 2) is 0.379 nM; with human Ishikawa cells (Homo sapiens, Ishikawa, 120 h, read-out: Inhibition of 1 nM E2-induced stimulation of alkaline phosphatase IC50), 4.24 nM. For the same molecule, in assay [3] (MCF-7, Experiment 2), the “Stimulation of DNA by tested compounds % of 1 nM E2 stimulation” value is reported as “N.S”. Also, the “inhibition of estrone-stimulated uterine weight” value is “no inhibitory effect” in assay [4] (1 μg daily), 25% in assay [4] (3 μg daily) and 44% in assay [4] (10 μg daily). For the same molecule, in assay [4] (10 μg daily), the “inhibition of vaginal weight” value is given as 37%. The “stimulation of uterine weight (estrogenic effect)” value in assay [4] (setting [6]) is given as 93%. Further, in assay [4] (setting [6]), the “stimulation of vaginal weight (estrogenic effect)” value was 73%. Moreover, the Emax in the assay with human Ishikawa cells (Homo sapiens, Ishikawa, 120 h, read-out: Maximal stimulation of alkaline phosphatase % of 1 nM E2 stimulation) was 17.9%. Further, the “Maximal inhibition of 1 nM E2-induced stimulation of alkaline phosphatase” value in the assay on human Ishikawa cells (Ishikawa cells, 5-day incubation, 1 nM E2) is recorded as 85.14 (1).
